# From paper PMC9085577, “Discovery of a Potent and Orally Active Dual GPBAR1/CysLT1R Modulator for the Treatment of Metabolic Fatty Liver Disease” (Frontiers in Pharmacology, 2022)
# System: liver transcriptome
# Test: AmpliSeq liver transcriptome of HFD-F mice
# Assay type: in vivo
# From the text: C57BL/6J male mice were fed a high fat diet (HFD) containing 59 KJ% fat plus 1% cholesterol, w/o sugar (ssniff ® EF R/M acc. D12330 mod. 22,7 ME/kg) and fructose (HFD-F) in drinking water (42 g/L), or normal chow diet for 61 days. Food intake was estimated as the difference of weight between the offered and the remnant amount of food at 3-days intervals. The food was provided as pressed pellets and the residual spillage was not considered. After 7 days, HFD-F mice were randomized to receive HFD-F alone or in combination with compound 2 (30 mg/kg/day) by gavage until the end of the experiment. Doses of each agent were chosen according to previously published data. Mice were housed under controlled temperature (22°C) and photoperiods (12:12-h light/dark cycle), allowed unrestricted access to standard mouse chow and tap water. The experimental protocol was approved by the Animal Care and Use Committee of the University of Perugia and by the Italian Minister of Health and Istituto Superiore di Sanità (Italy) and was in agreement with the European guidelines for use of experimental animals (permission n. 583/2017-PR). The general health of the animals was monitored daily by the Veterinarian in the animal facility. At the day of sacrifice, fed mice were deeply anesthetized with a mixture of tiletamine hypochloride and zolazepam hypochloride/xylazine at a dose of 50/5 mg/kg and sacrificed before 12 a.m.
# High-quality RNA was extracted from mice livers, using the Direct-zol™ RNA MiniPrep w/Zymo-Spin™ IIC Columns (Zymo Research, Irvine, CA) according to the manufacturer’s instructions. RNA quality and quantity were assessed with the Qubit® RNA HS Assay Kit and a Qubit 3.0 fluorometer (Invitrogen, Carlsbad, CA) followed by agarose gel electrophoresis. Libraries were generated using the Ion AmpliSeq™ Transcriptome Mouse Gene Expression Core Panel and Chef-Ready Kit (Comprehensive evaluation of AmpliSeq transcriptome, a whole transcriptome RNA sequencing methodology) (Thermo Fisher Scientific, Waltham, MA). Briefly, 10 ng of RNA was reverse transcribed with SuperScript™ Vilo™ cDNA Synthesis Kit (Thermo Fisher Scientific, Waltham, MA) before library preparation on the Ion Chef™ instrument (Thermo Fisher Scientific, Waltham, MA). The resulting cDNA was amplified to prepare barcoded libraries using the Ion Code™ PCR Plate, and the Ion AmpliSeq™ Transcriptome Mouse Gene Expression Core Panel (Thermo Fisher Scientific, Waltham, MA), Chef-Ready Kit, according to the manufacturer’s instructions. Barcoded libraries were combined to a final concentration of 100 p.m., and used to prepare Template-Positive Ion Sphere™ (Thermo Fisher Scientific, Waltham, MA) Particles to load on Ion 540™ Chips, using the Ion 540™ Kit-Chef (Thermo Fisher Scientific, Waltham, MA). Sequencing was performed on an Ion S5™ Sequencer with Torrent Suite™ Software v6 (Thermo Fisher Scientific, Waltham, MA). The analyses were performed with a range of fold <−2 and >+2 and a p value <0.05, using Transcriptome Analysis Console Software (version 4.0.1), certified for AmpliSeq analysis (Thermo-Fisher). The transcriptomic data have been deposited as dataset on Mendeley data repository (reference number linking to the repository: Fiorucci, Stefano; Biagioli, Michele; Marchianò, Silvia; Di Giorgio, Cristina (2021), “Discovery of potent dual GPBAR1/CysLT1R modulator for the treatment of metabolic fatty liver disease,” Mendeley Data, V1, doi: 10.17632/6dnrk9fc72.1).
# [1] = HFD-F mice, 30 mg/kg/day by gavage
# [2] = in comparison to untreated mice
smiles,measurement,setting,value
"O=C(O)c1cccc(-c2ccc(OCc3ccc4ccccc4n3)cc2)c1 [Compound 2, 4'-(quinolin-2-ylmethoxy)-[1,1′-biphenyl]-3-carboxylic acid]",liver expression of Alox5,[1],downregulated
same,liver expression of Col1α1,[1],reversed
same,"liver expression of Elov5, Mogat1, fabp2, Cd36, Me1, and Cidea",[1],reduced significantly
same,liver expression of FXR and its target genes Shp and Bsep,[1],no effect
same,liver expression of Fasn,[1],reduced significantly
same,liver expression of Fgf21,[1],decreased
same,liver expression of Srepb1f,[1],no effect
same,liver expression of αSma,[1],reversed
same,liver expression of Cyp7a1,"HFD-F mice, 30 mg/kg/day by gavage, 30 mg/kg/day",potently increased
same,number of liver genes modulated compared to HFD-F alone,"fold change <−2 or >2, p value < 0.05",154
same,liver expression of Pparα,[2],increased
same,liver expression of Pparγ,[2],increased
same,1810011O10Rik transcript Avg (log2),"liver, HFD + compound 2",5.22 log2
same,2310001K24Rik transcript Avg (log2),"liver, HFD + compound 2",2.22 log2
same,2310039H08Rik transcript Avg (log2),"liver, HFD + compound 2",3.92 log2
same,4833423E24Rik transcript Avg (log2),"liver, HFD + compound 2",1.1 log2
same,6430573F11Rik transcript Avg (log2),"liver, HFD + compound 2",1.17 log2
same,AW549542 transcript Avg (log2),"liver, HFD + compound 2",6.06 log2
same,Abcb1a transcript Avg (log2),"liver, HFD + compound 2",2.24 log2
same,Acod1 transcript Avg (log2),"liver, HFD + compound 2",0.24 log2
same,Acot3 transcript Avg (log2),"liver, HFD + compound 2",1.85 log2
same,Adam8 transcript Avg (log2),"liver, HFD + compound 2",0.63 log2
same,Adam11 transcript Avg (log2),"liver, HFD + compound 2",7.79 log2
same,Anxa2 transcript Avg (log2),"liver, HFD + compound 2",4.37 log2
same,Apcs transcript Avg (log2),"liver, HFD + compound 2",6.13 log2
same,Arntl transcript Avg (log2),"liver, HFD + compound 2",1.77 log2
same,Arsg transcript Avg (log2),"liver, HFD + compound 2",4.36 log2
same,Atp1a3 transcript Avg (log2),"liver, HFD + compound 2",0.63 log2
same,Aurka transcript Avg (log2),"liver, HFD + compound 2",0.66 log2
same,Avpr1a transcript Avg (log2),"liver, HFD + compound 2",3.76 log2
same,Bcat1 transcript Avg (log2),"liver, HFD + compound 2",0 log2
same,C920009B18Rik transcript Avg (log2),"liver, HFD + compound 2",0.43 log2
same,Cabyr transcript Avg (log2),"liver, HFD + compound 2",3.88 log2
same,Capn11 transcript Avg (log2),"liver, HFD + compound 2",2.07 log2
same,Ccl2 transcript Avg (log2),"liver, HFD + compound 2",2.2 log2
same,Ccl3 transcript Avg (log2),"liver, HFD + compound 2",1.68 log2
same,Ccl4 transcript Avg (log2),"liver, HFD + compound 2",0.13 log2
same,Ccl7 transcript Avg (log2),"liver, HFD + compound 2",0.8 log2
same,Ccl9 transcript Avg (log2),"liver, HFD + compound 2",5.17 log2
same,Cd9 transcript Avg (log2),"liver, HFD + compound 2",5.07 log2
same,Cd14 transcript Avg (log2),"liver, HFD + compound 2",2.99 log2
same,Cd36 transcript Avg (log2),"liver, HFD + compound 2",4.05 log2
same,Cd63 transcript Avg (log2),"liver, HFD + compound 2",2.97 log2
same,Cdk1 transcript Avg (log2),"liver, HFD + compound 2",1.66 log2
same,Cdkl2 transcript Avg (log2),"liver, HFD + compound 2",1.24 log2
same,Cdkn1a transcript Avg (log2),"liver, HFD + compound 2",1.4 log2
same,Cdkn3 transcript Avg (log2),"liver, HFD + compound 2",0.2 log2
same,Ces2b transcript Avg (log2),"liver, HFD + compound 2",4.12 log2
same,Cetn4 transcript Avg (log2),"liver, HFD + compound 2",1.14 log2
same,Chka transcript Avg (log2),"liver, HFD + compound 2",4.93 log2
same,Chrna4 transcript Avg (log2),"liver, HFD + compound 2",2.32 log2
same,Cidea transcript Avg (log2),"liver, HFD + compound 2",0.78 log2
same,Cidec transcript Avg (log2),"liver, HFD + compound 2",5.15 log2
same,Cirbp transcript Avg (log2),"liver, HFD + compound 2",6.69 log2
same,Ckap2 transcript Avg (log2),"liver, HFD + compound 2",0.6 log2
same,Clec4e transcript Avg (log2),"liver, HFD + compound 2",0.33 log2
same,Clec4d transcript Avg (log2),"liver, HFD + compound 2",0.27 log2
same,Col27a1 transcript Avg (log2),"liver, HFD + compound 2",6.19 log2
same,Csf3 transcript Avg (log2),"liver, HFD + compound 2",0.06 log2
same,Cxcl2 transcript Avg (log2),"liver, HFD + compound 2",1 log2
same,Cyp1a2 transcript Avg (log2),"liver, HFD + compound 2",11.93 log2
same,Cyp2a5 transcript Avg (log2),"liver, HFD + compound 2",10.52 log2
same,Cyp7a1 transcript Avg (log2),"liver, HFD + compound 2",9.39 log2
same,Cyp17a1 transcript Avg (log2),"liver, HFD + compound 2",4.11 log2
same,D17H6S56E-5 transcript Avg (log2),"liver, HFD + compound 2",1.96 log2
same,Dbp transcript Avg (log2),"liver, HFD + compound 2",7.05 log2
same,Defb1 transcript Avg (log2),"liver, HFD + compound 2",1.19 log2
same,Derl2 transcript Avg (log2),"liver, HFD + compound 2",4.75 log2
same,Dhrs9 transcript Avg (log2),"liver, HFD + compound 2",1.65 log2
same,Dtx4 transcript Avg (log2),"liver, HFD + compound 2",2.62 log2
same,Dusp8 transcript Avg (log2),"liver, HFD + compound 2",1.5 log2
same,Egr1 transcript Avg (log2),"liver, HFD + compound 2",3.52 log2
same,Ell transcript Avg (log2),"liver, HFD + compound 2",5.75 log2
same,Elovl3 transcript Avg (log2),"liver, HFD + compound 2",8.94 log2
same,Elovl5 transcript Avg (log2),"liver, HFD + compound 2",9.72 log2
same,Ephb2 transcript Avg (log2),"liver, HFD + compound 2",0.78 log2
same,Epm2aip1 transcript Avg (log2),"liver, HFD + compound 2",2.63 log2
same,Fam57a transcript Avg (log2),"liver, HFD + compound 2",2.02 log2
same,Fgf21 transcript Avg (log2),"liver, HFD + compound 2",2.1 log2
same,Fxyd2 transcript Avg (log2),"liver, HFD + compound 2",0.72 log2
